From patent publication US9232796B2, “Herbicidal compositions comprising 4-amino-3-chloro-5-fluoro-6-(4-chloro-2-fluoro-3-methoxyphenyl) pyridine-2-carboxylic acid or a derivative thereof and acetyl-CoA carboxylase (ACCase) inhibitors” (DOW AGROSCIENCES LLC, priority 2012, dated 2016)

Key:
[1] = test system: KCHSC; test: Example IV postemergence foliar-applied, greenhouse, cereal crops weeds; assay type: in vivo, Kochia scoparia (L.) Schrad.
Experimental: Seeds of the desired test plant species were planted in Sun Gro MetroMix® 306 planting mixture, which typically has a pH of 6.0 to 6.8 and an organic matter content of about 30 percent, in plastic pots with a surface area of 103.2 square centimeters (cm^2). […] The plants were grown for 7-36 days in a greenhouse with an approximate 14 hour photoperiod which was maintained at about 18° C. during the day and about 17° C. during the night. Nutrients and water were added on a regular basis and supplemental lighting was provided with overhead metal halide 1000-Watt lamps as necessary. The plants were employed for testing when they reached the second or third true leaf stage.
(§1) Treatments consisted of the benzyl ester of 4-amino-3-chloro-5-fluoro-6-(4-chloro-2-fluoro-3-methoxy-phenyl)pyridine-2-carboxylic acid (Compound A), formulated as an SC, a second cereal herbicide alone and then both in combination.
(§2) Other herbicidal components were applied on an active ingredient basis and included acetyl-CoA carboxylase (ACCase)-inhibiting herbicides clodinafop-propargyl, fenoxaprop-P-ethyl, pinoxaden and tralkoxydim.
Measured aliquots of benzyl ester of 4-amino-3-chloro-5-fluoro-6-(4-chloro-2-fluoro-3-methoxy-phenyl)pyridine-2-carboxylic acid (Compound A) were placed in 25 milliliter (mL) glass vials and diluted in a volume of 1.25% (v/v) Agri-Dex® crop oil concentrate to obtain stock solutions. Compound requirements are based upon a 12 mL application volume at a rate of 187 liters per hectare (L/ha). […] Formulated compounds were applied to the plant material with an overhead Mandel track sprayer equipped with an 8002E nozzle calibrated to deliver 187 L/ha over an application area of 0.503 square meters (m^2) at a spray height of 18 inches (46 cm) above average plant canopy. Control plants were sprayed in the same manner with the solvent blank.
(§3) The treated plants and control plants were placed in a greenhouse as described above and watered by sub-irrigation to prevent wash-off of the test compounds. After 20-22 days, the condition of the test plants as compared with that of the control plants was determined visually and scored on a scale of 0 to 100 percent where 0 corresponds to no injury and 100 corresponds to complete kill.
(§4) Colby's equation was used to determine the herbicidal effects expected from the mixtures (Colby, S. R. 1967. Calculation of the synergistic and antagonistic response of herbicide combinations. Weeds 15:20-22.).
(§5) The following equation was used to calculate the expected activity of mixtures containing two active ingredients, A and B: Expected=A+B−(A×B/100)

[2] = test system: LOLMU; test: as above; assay type: in vivo, Lolium multiflorum Lam.
Experimental: Seeds of the desired test plant species were planted in Sun Gro MetroMix® 306 planting mixture, which typically has a pH of 6.0 to 6.8 and an organic matter content of about 30 percent, in plastic pots with a surface area of 103.2 square centimeters (cm^2). When required to ensure good germination and healthy plants, a fungicide treatment and/or other chemical or physical treatment was applied. The plants were grown for 7-36 days in a greenhouse with an approximate 14 hour photoperiod which was maintained at about 18° C. during the day and about 17° C. during the night. Nutrients and water were added on a regular basis and supplemental lighting was provided with overhead metal halide 1000-Watt lamps as necessary. The plants were employed for testing when they reached the second or third true leaf stage.
as §1, §2
Measured aliquots of benzyl ester of 4-amino-3-chloro-5-fluoro-6-(4-chloro-2-fluoro-3-methoxy-phenyl)pyridine-2-carboxylic acid (Compound A) were placed in 25 milliliter (mL) glass vials and diluted in a volume of 1.25% (v/v) Agri-Dex® crop oil concentrate to obtain stock solutions. Compound requirements are based upon a 12 mL application volume at a rate of 187 liters per hectare (L/ha). Spray solutions of the second cereal herbicide and experimental compound mixtures were prepared by adding the stock solutions to the appropriate amount of dilution solution to form 12 mL spray solution with active ingredients in two- and three-way combinations. Formulated compounds were applied to the plant material with an overhead Mandel track sprayer equipped with an 8002E nozzle calibrated to deliver 187 L/ha over an application area of 0.503 square meters (m^2) at a spray height of 18 inches (46 cm) above average plant canopy. Control plants were sprayed in the same manner with the solvent blank.
as §3, §4, §5

[3] = Compound A Benzyl Ester 5 gai/ha
[4] = Compound A Benzyl Ester 10 gai/ha

SMILES: COc1c(Cl)ccc(-c2nc(C(=O)OCc3ccccc3)c(Cl)c(N)c2F)c1F [Compound A Benzyl Ester, benzyl ester of 4-amino-3-chloro-5-fluoro-6-(4-chloro-2-fluoro-3-methoxy-phenyl)pyridine-2-carboxylic acid]
- Visual Weed Control (%) - 21 DAA KCHSC Obs [1, 3]: 20%
- Visual Weed Control (%) - 21 DAA KCHSC Obs [1, 4]: 30%
- Visual Weed Control (%) - 21 DAA LOLMU Obs [2, 3]: 0%
- Visual Weed Control (%) - 21 DAA LOLMU Obs [2, 4]: 0%
